≈ marks a conversion by molar mass, not a printed value.
How the values were obtained:
[1] = Hepatic clearance in human hepatocytes after 1 to 4 hrs by LC/MS/MS analysis; format: ADME, cell-based, Liver, Hepatocyte
[2] = Oral bioavailability in cynomolgus monkey at 2 mg/kg by LC/MS/MS analysis; format: ADME, organism-based, Macaca fascicularis; conditions: in vivo
[3] = biological target: Voltage-gated inwardly rectifying potassium channel KCNH2 (Homo sapiens, UniProt Q12809)
Cytochrome P450 2D6 = Cytochrome P450 2D6 (Homo sapiens, UniProt P10635)
Cytochrome P450 2C9 = Cytochrome P450 2C9 (Homo sapiens, UniProt P11712)
[4] = Metabolic stability in dog hepatocytes assessed as hepatic clearance; format: ADME, cell-based, Canis lupus familiaris, Liver, Hepatocyte
[5] = Clearance in Sprague-Dawley rat at 0.4 mg/kg, iv by LC/MS/MS analysis; format: ADME, organism-based; set-up: dose 0.4 mg/kg, route intravenous; conditions: in vivo
[6] = Cmax in Sprague-Dawley rat at 2 mg/kg, po by LC/MS/MS analysis; format: ADME, organism-based; set-up: dose 2 mg/kg, route oral; conditions: in vivo
[7] = Clearance in cynomolgus monkey at 0.4 mg/kg, iv by LC/MS/MS analysis; format: ADME, organism-based, Macaca fascicularis; set-up: dose 0.4 mg/kg, route intravenous; conditions: in vivo
[8] = Metabolic stability in rat hepatocytes assessed as hepatic clearance; format: ADME, cell-based, Liver, Hepatocyte
[9] = Hepatic clearance in human liver microsomes by LC/MS/MS analysis; format: ADME, Microsome
[10] = AUC in Beagle dog at 2 mg/kg, po by LC/MS/MS analysis; format: ADME, organism-based, Canis lupus familiaris; set-up: dose 2 mg/kg, route oral; conditions: plasma
[11] = Plasma protein binding in dog; format: ADME, cell-free, Canis lupus familiaris; conditions: read-out: PPB (converted)
[12] = Plasma protein binding in rat; format: ADME, cell-free; conditions: read-out: PPB (converted)
[13] = Thermodynamic solubility in aqueous buffer at pH 2; format: physicochemical; conditions: read-out: Therm_solubility
[14] = Apparent permeability across apical to basolateral side in dog MDCK cells; format: ADME, cell-based, Canis lupus familiaris
[15] = (§1) Oral bioavailability in Beagle dog at 2 mg/kg by LC/MS/MS analysis; format: ADME, organism-based, Canis lupus familiaris; conditions: Beagle, in vivo
[16] = biological target: Tyrosine-protein kinase JAK3 (Homo sapiens, UniProt P52333)
[17] = Half life in cynomolgus monkey at 0.4 mg/kg, iv by LC/MS/MS analysis; format: ADME, organism-based, Macaca fascicularis; set-up: dose 0.4 mg/kg, route intravenous; conditions: in vivo
[18] = Plasma protein binding in cynomolgus monkey; format: ADME, cell-free, Macaca fascicularis; conditions: read-out: PPB (converted)
Cytochrome P450 2C19 = Cytochrome P450 2C19 (Homo sapiens, UniProt P33261)
Cytochrome P450 1A2 = biological target: T1, Cytochrome P450 1A2 (Homo sapiens, UniProt P05177); test: Reversible inhibition of CYP1A2 in human liver microsomes using phenacetin as substrate by LC/MS/MS analysis; format: ADME, Microsome
T1 sequence (P05177 whole entry): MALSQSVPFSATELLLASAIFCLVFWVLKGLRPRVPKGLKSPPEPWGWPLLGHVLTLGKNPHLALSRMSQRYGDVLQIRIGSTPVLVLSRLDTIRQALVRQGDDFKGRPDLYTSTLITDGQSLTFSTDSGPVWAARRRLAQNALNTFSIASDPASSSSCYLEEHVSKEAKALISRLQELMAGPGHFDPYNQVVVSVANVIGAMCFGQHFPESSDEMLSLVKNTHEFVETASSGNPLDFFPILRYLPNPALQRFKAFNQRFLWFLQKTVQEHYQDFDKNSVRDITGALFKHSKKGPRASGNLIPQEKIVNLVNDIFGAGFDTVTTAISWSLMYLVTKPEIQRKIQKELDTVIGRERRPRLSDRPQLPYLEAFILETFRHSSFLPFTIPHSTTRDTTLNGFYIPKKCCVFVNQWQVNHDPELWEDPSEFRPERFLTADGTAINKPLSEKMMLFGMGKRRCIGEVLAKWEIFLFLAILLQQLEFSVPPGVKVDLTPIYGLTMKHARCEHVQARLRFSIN

[19] = Cmax in Beagle dog at 2 mg/kg, po by LC/MS/MS analysis; format: ADME, organism-based, Canis lupus familiaris; set-up: dose 2 mg/kg, route oral; conditions: in vivo
[20] = Half life in Sprague-Dawley rat at 0.4 mg/kg, iv by LC/MS/MS analysis; format: ADME, organism-based; set-up: dose 0.4 mg/kg, route intravenous; conditions: in vivo
Cytochrome P450 3A4 [21] = biological target: T2, Cytochrome P450 3A4 (Homo sapiens, UniProt P08684); test: Reversible inhibition of CYP3A4 in human liver microsomes using testosterone as substrate by LC/MS/MS analysis; format: ADME, Microsome
[22] = Cmax in cynomolgus monkey at 2 mg/kg, po by LC/MS/MS analysis; format: ADME, organism-based, Macaca fascicularis; set-up: dose 2 mg/kg, route oral; conditions: in vivo
[23] = Oral bioavailability in Sprague-Dawley rat at 2 mg/kg by LC/MS/MS analysis; format: ADME, organism-based; conditions: Sprague-Dawley, in vivo
[24] = Apparent permeability across basolateral to apical side in dog MDCK cells; format: ADME, cell-based, Canis lupus familiaris
Cytochrome P450 3A4 [25] = biological target: T2, Cytochrome P450 3A4; test: Reversible inhibition of CYP3A4 in human liver microsomes using midazolam as substrate by LC/MS/MS analysis; format: ADME, Microsome
[26] = Clearance in Beagle dog at 0.4 mg/kg, iv by LC/MS/MS analysis; format: ADME, organism-based, Canis lupus familiaris; set-up: dose 0.4 mg/kg, route intravenous; conditions: in vivo
[27] = Metabolic stability in monkey hepatocytes assessed as hepatic clearance; format: ADME, cell-based, Macaca mulatta, Liver, Hepatocyte; conditions: rhesus monkey
[28] = AUC in cynomolgus monkey at 2 mg/kg, po by LC/MS/MS analysis; format: ADME, organism-based, Macaca fascicularis; set-up: dose 2 mg/kg, route oral; conditions: plasma
[29] = AUC in Sprague-Dawley rat at 2 mg/kg, po by LC/MS/MS analysis; format: ADME, organism-based; set-up: dose 2 mg/kg, route oral; conditions: plasma
[30] = Half life in Beagle dog at 0.4 mg/kg, iv by LC/MS/MS analysis; format: ADME, organism-based, Canis lupus familiaris; set-up: dose 0.4 mg/kg, route intravenous; conditions: in vivo
[31] = Thermodynamic solubility in aqueous buffer at pH 7.4; format: physicochemical; conditions: read-out: Therm_solubility
[32] = biological target: T3, Tyrosine-protein kinase JAK1 (Homo sapiens, UniProt P23458)
[33] = biological target: T4, Non-receptor tyrosine-protein kinase TYK2 (Homo sapiens, UniProt P29597)
[34] = biological target: T4, Non-receptor tyrosine-protein kinase TYK2; remark: listed apart in the source
Canis familiaris = test: as §1; format: ADME, organism-based, Canis lupus familiaris; conditions: in vivo
[35] = biological target: T3, Tyrosine-protein kinase JAK1; remark: listed apart in the source
[36] = biological target: T3, Tyrosine-protein kinase JAK1; remark: listed apart in the source
[37] = biological target: Macrophage colony-stimulating factor 1 receptor (Homo sapiens) (UniProt P07333); test: Inhibition of CSF1R (unknown origin) at 1 uM
[38] = biological target: Leucine-rich repeat serine/threonine-protein kinase 2 (Homo sapiens) (UniProt Q5S007); test: Inhibition of LRRK2 (unknown origin) at 1 uM

Chain of Cytochrome P450 2C19 (P33261 whole entry): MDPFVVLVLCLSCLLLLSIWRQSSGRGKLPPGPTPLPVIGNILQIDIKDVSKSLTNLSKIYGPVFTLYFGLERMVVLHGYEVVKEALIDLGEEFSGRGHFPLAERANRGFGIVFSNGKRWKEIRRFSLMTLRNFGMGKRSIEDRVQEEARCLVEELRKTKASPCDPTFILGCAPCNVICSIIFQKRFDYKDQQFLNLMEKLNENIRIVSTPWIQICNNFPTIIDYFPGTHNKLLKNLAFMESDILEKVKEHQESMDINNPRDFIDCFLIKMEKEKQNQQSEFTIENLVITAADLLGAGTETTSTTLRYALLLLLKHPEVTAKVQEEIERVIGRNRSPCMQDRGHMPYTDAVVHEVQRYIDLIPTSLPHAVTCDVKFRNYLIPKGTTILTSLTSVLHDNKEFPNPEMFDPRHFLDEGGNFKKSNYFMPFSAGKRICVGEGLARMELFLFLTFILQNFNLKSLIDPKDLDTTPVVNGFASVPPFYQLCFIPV
Chain of Cytochrome P450 2C9 (P11712 whole entry): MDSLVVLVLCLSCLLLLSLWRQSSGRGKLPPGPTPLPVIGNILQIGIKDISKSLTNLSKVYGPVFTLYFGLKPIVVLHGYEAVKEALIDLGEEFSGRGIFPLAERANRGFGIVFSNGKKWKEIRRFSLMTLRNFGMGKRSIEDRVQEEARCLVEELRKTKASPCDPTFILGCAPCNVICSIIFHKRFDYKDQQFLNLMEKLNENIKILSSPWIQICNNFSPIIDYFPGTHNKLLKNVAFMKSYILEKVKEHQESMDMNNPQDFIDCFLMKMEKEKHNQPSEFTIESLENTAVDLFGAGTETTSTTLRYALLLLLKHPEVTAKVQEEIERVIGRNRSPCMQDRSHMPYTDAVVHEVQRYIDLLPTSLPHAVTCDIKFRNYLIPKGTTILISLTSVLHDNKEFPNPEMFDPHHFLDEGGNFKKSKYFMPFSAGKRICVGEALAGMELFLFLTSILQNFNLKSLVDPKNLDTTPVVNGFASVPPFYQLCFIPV
Chain of Cytochrome P450 2D6 (P10635 whole entry): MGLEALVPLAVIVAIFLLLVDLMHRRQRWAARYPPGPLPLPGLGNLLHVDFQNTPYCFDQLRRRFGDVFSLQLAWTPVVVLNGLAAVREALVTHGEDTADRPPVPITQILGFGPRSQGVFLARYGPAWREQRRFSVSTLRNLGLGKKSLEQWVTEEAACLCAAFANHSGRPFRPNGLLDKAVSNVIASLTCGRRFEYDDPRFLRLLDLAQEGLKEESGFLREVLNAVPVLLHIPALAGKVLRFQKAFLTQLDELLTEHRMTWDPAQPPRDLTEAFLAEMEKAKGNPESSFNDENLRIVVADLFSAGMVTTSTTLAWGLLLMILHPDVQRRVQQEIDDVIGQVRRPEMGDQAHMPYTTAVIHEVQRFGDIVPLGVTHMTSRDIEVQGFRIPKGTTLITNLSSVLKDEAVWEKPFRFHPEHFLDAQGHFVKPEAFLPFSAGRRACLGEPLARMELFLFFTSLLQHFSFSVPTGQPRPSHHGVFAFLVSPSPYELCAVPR
T3 sequence (P23458 whole entry): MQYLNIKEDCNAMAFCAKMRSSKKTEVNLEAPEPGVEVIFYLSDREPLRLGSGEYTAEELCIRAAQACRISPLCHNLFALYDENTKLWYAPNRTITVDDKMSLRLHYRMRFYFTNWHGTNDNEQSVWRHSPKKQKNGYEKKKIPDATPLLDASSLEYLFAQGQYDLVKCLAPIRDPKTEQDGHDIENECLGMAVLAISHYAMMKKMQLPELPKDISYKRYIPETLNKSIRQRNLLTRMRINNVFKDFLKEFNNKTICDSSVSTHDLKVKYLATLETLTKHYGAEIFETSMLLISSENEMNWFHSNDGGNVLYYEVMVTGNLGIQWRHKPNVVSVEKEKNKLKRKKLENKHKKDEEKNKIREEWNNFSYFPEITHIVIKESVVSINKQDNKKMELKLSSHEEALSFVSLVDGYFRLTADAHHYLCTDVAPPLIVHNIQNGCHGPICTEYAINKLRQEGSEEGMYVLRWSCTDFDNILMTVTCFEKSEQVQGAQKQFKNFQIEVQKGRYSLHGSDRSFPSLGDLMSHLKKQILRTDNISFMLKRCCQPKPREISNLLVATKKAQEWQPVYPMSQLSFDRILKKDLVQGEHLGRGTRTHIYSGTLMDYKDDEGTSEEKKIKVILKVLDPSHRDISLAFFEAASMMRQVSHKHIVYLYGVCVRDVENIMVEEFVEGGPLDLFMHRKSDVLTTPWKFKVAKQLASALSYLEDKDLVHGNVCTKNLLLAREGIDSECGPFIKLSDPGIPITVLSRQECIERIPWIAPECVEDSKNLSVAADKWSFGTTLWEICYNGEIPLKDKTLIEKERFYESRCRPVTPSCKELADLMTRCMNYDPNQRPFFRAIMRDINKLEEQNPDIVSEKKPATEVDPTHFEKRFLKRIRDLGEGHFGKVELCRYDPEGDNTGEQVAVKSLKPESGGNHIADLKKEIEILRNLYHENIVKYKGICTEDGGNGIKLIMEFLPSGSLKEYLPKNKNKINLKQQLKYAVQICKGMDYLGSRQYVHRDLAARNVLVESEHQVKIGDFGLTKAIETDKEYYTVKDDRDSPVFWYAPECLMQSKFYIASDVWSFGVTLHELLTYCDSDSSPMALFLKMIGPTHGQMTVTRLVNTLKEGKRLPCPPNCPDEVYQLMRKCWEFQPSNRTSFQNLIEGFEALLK
T2 sequence (P08684 whole entry): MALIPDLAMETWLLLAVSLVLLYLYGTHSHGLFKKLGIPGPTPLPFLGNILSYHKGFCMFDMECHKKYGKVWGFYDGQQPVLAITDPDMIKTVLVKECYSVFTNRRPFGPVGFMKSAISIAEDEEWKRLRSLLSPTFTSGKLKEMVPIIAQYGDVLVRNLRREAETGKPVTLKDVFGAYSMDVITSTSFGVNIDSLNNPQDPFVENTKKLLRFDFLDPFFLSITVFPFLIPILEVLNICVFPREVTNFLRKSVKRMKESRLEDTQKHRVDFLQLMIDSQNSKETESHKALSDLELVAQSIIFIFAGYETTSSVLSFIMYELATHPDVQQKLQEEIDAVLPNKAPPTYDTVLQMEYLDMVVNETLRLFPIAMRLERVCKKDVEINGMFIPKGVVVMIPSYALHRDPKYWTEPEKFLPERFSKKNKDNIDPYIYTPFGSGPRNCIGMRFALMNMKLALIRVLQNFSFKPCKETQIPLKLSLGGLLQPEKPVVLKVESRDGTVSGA
Chain of Tyrosine-protein kinase JAK3 (P52333 whole entry): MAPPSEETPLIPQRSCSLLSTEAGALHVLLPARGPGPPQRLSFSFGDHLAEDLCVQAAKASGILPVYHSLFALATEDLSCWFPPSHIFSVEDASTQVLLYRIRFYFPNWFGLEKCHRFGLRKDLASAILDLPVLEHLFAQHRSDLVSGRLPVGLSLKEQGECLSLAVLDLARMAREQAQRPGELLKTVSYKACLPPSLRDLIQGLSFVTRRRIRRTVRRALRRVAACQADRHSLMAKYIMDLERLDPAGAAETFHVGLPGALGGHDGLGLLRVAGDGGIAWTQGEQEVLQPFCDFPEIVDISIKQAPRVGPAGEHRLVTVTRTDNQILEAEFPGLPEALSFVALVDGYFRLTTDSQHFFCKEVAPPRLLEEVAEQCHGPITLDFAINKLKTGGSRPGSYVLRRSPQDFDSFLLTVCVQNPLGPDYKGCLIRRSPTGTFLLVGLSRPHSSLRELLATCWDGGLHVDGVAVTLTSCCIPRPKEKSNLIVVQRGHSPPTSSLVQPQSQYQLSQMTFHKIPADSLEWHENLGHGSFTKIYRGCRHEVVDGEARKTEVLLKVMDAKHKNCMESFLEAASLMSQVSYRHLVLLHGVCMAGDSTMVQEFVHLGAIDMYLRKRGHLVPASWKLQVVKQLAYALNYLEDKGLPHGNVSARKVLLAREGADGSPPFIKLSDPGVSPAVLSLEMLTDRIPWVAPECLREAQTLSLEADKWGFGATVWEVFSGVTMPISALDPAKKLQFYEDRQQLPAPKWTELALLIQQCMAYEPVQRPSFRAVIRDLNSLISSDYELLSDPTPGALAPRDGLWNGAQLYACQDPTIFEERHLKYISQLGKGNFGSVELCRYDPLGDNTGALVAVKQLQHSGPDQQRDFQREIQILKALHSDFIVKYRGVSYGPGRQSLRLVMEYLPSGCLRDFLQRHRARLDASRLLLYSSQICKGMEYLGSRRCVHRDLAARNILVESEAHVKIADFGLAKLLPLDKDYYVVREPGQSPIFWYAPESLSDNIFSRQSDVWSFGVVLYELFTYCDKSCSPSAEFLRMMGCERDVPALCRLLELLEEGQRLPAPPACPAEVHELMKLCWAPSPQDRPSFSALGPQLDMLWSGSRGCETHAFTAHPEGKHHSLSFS

Structure (SMILES)	CLhep predicted [1]	IC50 (Cytochrome P450 2D6)	IC50 (Cytochrome P450 2C9)	CLhep predicted [4]	clearance [5]	Cmax [6]	CLhep predicted [8]	CLhep predicted [9]	AUC [10]	fraction unbound [11]	fraction unbound [12]	solubility thermodynamic [13]	Papp A→B [14]	Ki [16]	fraction unbound [18]	IC50 (Cytochrome P450 2C19)	IC50 (Cytochrome P450 1A2)	Cmax [19]	half-life [20]	IC50 (Cytochrome P450 3A4 [21])	further results
C[C@@H](O)c1nc2cnc3[nH]ccc3c2n1[C@H]1CC[C@H](CCC#N)CC1	5.7 mL/min/kg	> 10000 nM	> 10000 nM	11 mL/min/kg	126 mL/min/kg	220 nM	28 mL/min/kg	5.2 mL/min/kg	4.3 µM·h	0.34	0.32	> 4000 µM	4.7 ×10⁻⁶ cm/s	7.8 nM	0.24	> 10000 nM	> 10000 nM	1300 nM	0.6 h	> 10000 nM	bioavailability [2]: 8%; IC50 [3]: 20000 nM; clearance [7]: 29 mL/min/kg; bioavailability [15]: 125%; half-life [17]: 0.8 h; Cmax [22]: 70 nM; bioavailability [23]: 50%; Papp B→A [24]: 9.3 ×10⁻⁶ cm/s; IC50 (Cytochrome P450 3A4 [25]): 6700 nM; clearance [26]: 29 mL/min/kg; CLhep predicted [27]: 36 mL/min/kg; AUC [28]: 0.26 µM·h; AUC [29]: 0.42 µM·h; half-life [30]: 1.3 h; solubility thermodynamic [31]: 16 µM (≈ 5.4 µg/mL)
C[C@@H](O)c1nc2cnc3[nH]ccc3c2n1[C@H]1CC[C@H](CC#N)CC1	6.8 mL/min/kg	> 10000 nM	> 10000 nM	12 mL/min/kg	38 mL/min/kg	930 nM	15 mL/min/kg	5.2 mL/min/kg	11.2 µM·h	0.37	0.37	> 4000 µM	3.5 ×10⁻⁶ cm/s	5.9 nM	0.3	> 10000 nM	> 10000 nM	2500 nM	0.5 h	> 10000 nM	EC50 [32]: 5.7 nM; Ki [33]: 0.4 nM; EC50 [34]: 100 nM; F (Canis familiaris): 183%; Ki [35]: 0.1 nM; bioavailability [23]: 49%; Papp B→A [24]: 4.9 ×10⁻⁶ cm/s; IC50 (Cytochrome P450 3A4 [25]): 8800 nM; clearance [26]: 17 mL/min/kg; CLhep predicted [27]: 25 mL/min/kg; AUC [29]: 1.3 µM·h; half-life [30]: 1.8 h; solubility thermodynamic [31]: 130 µM (≈ 42 µg/mL); EC50 [36]: 28 nM
C[C@@H](O)c1nc2cnc3[nH]ccc3c2n1[C@H]1CC[C@@H](NCC(F)(F)F)C1	3.6 mL/min/kg	> 10000 nM	> 10000 nM	9.8 mL/min/kg	55 mL/min/kg	980 nM	14 mL/min/kg	3.8 mL/min/kg	9 µM·h	0.41	0.51	> 4000 µM	10 ×10⁻⁶ cm/s	53 nM	0.44	> 10000 nM	> 10000 nM	3000 nM	1.1 h	> 10000 nM	EC50 [32]: 70 nM; Ki [33]: 20 nM; EC50 [34]: 2200 nM; bioavailability [15]: 131%; Ki [35]: 2 nM; inhibition [37]: 75%; bioavailability [23]: 61%; Papp B→A [24]: 18 ×10⁻⁶ cm/s; inhibition [38]: 72%; IC50 (Cytochrome P450 3A4 [25]): > 10000 nM; clearance [26]: 14 mL/min/kg; CLhep predicted [27]: 27 mL/min/kg; AUC [29]: 1 µM·h; half-life [30]: 1.2 h; solubility thermodynamic [31]: 70 µM (≈ 25.7 µg/mL); EC50 [36]: 51 nM
